Legend:
Assay in all cases: KINOMEscan competition binding
Conditions in all cases: compound 1.0 µM
[1] = molecular target: MAP3K15 (human) (UniProt Q6ZN16)
[2] = molecular target: BUB1 (human) (UniProt O43683)
[3] = molecular target: TGFBR1 (human) (UniProt P36897)
[4] = test system: PIK3CA (human), P42336 [H1047L]
[5] = molecular target: CIT (human) (UniProt O14578)
[6] = molecular target: PIK3CA (human) (UniProt P42336)
[7] = molecular target: CDK14 (human) (UniProt O94921)
[8] = molecular target: SGK1 (human) (UniProt O00141)
[9] = molecular target: BMP2K (human) (UniProt Q9NSY1)
[10] = test system: EGFR (human), P00533 [T790M/L858R]
[11] = molecular target: MTOR (human) (UniProt P42345)
[12] = molecular target: GSK3B (human) (UniProt P49841)
[13] = molecular target: PIM1 (human) (UniProt P11309)
[14] = molecular target: PRKX (human) (UniProt P51817)
[15] = molecular target: PLK4 (human) (UniProt O00444)
[16] = molecular target: FES (human) (UniProt P07332)
[17] = molecular target: DCLK1 (human) (UniProt O15075)
[18] = molecular target: FLT1 (human) (UniProt P17948)
[19] = molecular target: MKNK1 (human) (UniProt Q9BUB5)
[20] = molecular target: CDC42BPA (human) (UniProt Q5VT25)
[21] = molecular target: ICK (human) (UniProt Q9UPZ9)
[22] = molecular target: CDKL1 (human) (UniProt Q00532)
[23] = molecular target: SGK110 (human) (UniProt P0C264)
[24] = molecular target: BMPR1B (human) (UniProt O00238)
[25] = molecular target: NEK4 (human) (UniProt P51957)
[26] = molecular target: PAK7 (human) (UniProt Q9P286)
[27] = molecular target: DDR1 (human) (UniProt Q08345)
[28] = test system: PIK3CA (human), P42336 [M1043I]
[29] = molecular target: ZAP70 (human) (UniProt P43403)
[30] = molecular target: MAP3K6 (human) (UniProt O95382)
[31] = molecular target: AURKB (human) (UniProt Q96GD4)
[32] = molecular target: EPHA8 (human) (UniProt P29322)
[33] = molecular target: TAOK2 (human) (UniProt Q9UL54)
[34] = molecular target: SGK3 (human) (UniProt Q96BR1)
[35] = test system: EIF2AK4 KD2 (human), Q9P2K8 [S808G]
[36] = molecular target: MINK1 (human) (UniProt Q8N4C8)

GSK3B (human), sequence (P49841 whole entry, looked up): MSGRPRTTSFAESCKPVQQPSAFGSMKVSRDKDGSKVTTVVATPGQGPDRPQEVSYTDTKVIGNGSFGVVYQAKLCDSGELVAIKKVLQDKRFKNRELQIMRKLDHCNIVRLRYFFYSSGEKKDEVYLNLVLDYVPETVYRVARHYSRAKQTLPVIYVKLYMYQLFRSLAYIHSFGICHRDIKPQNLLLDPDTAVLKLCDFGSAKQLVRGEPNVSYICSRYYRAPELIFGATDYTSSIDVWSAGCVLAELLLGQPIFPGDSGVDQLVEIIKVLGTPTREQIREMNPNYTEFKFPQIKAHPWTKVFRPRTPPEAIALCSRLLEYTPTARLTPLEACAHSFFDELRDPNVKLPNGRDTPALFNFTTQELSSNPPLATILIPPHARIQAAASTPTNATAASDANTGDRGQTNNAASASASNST
CDC42BPA (human), sequence (Q5VT25 whole entry, looked up): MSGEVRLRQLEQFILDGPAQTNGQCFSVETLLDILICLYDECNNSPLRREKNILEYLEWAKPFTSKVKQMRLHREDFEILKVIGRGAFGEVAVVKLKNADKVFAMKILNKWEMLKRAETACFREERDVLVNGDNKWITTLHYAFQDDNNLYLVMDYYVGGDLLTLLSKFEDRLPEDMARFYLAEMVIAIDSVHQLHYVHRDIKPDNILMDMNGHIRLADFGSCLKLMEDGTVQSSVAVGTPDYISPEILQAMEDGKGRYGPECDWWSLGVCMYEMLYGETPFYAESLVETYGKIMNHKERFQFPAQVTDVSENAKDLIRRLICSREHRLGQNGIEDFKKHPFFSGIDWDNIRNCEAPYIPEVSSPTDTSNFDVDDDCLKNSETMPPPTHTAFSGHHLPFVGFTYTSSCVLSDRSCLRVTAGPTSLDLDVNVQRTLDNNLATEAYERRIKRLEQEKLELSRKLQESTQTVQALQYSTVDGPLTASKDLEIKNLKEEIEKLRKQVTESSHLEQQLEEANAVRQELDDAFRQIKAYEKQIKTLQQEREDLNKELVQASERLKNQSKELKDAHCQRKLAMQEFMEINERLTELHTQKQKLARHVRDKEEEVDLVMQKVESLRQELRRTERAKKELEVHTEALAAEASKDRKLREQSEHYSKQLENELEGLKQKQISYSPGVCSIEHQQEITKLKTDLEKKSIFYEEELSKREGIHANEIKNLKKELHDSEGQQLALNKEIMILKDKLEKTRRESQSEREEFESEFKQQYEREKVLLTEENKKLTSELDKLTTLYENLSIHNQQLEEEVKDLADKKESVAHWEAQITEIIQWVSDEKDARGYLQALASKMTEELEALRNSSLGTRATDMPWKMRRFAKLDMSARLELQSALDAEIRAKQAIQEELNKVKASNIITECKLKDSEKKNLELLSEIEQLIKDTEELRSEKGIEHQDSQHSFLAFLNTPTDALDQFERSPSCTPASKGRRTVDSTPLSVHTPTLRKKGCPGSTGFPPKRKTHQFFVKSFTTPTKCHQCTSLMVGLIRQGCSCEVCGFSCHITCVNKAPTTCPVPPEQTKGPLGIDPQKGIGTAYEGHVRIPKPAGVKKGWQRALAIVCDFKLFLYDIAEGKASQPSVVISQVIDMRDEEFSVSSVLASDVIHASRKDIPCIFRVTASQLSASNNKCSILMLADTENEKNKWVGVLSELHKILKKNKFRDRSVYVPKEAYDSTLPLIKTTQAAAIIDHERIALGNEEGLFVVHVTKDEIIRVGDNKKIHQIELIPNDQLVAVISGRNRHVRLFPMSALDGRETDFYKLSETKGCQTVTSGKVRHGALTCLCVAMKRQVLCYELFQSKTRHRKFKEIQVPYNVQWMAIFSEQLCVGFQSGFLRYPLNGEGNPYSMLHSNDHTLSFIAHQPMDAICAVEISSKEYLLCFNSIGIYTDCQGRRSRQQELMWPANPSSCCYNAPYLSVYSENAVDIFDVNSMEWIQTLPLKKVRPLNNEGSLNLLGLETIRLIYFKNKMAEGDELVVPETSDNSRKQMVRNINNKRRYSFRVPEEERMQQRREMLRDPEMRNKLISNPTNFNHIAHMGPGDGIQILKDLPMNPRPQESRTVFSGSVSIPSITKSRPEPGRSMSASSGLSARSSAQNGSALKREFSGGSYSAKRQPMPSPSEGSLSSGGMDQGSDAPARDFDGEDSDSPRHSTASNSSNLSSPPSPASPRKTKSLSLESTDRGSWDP
MAP3K6 (human), sequence (O95382 whole entry, looked up): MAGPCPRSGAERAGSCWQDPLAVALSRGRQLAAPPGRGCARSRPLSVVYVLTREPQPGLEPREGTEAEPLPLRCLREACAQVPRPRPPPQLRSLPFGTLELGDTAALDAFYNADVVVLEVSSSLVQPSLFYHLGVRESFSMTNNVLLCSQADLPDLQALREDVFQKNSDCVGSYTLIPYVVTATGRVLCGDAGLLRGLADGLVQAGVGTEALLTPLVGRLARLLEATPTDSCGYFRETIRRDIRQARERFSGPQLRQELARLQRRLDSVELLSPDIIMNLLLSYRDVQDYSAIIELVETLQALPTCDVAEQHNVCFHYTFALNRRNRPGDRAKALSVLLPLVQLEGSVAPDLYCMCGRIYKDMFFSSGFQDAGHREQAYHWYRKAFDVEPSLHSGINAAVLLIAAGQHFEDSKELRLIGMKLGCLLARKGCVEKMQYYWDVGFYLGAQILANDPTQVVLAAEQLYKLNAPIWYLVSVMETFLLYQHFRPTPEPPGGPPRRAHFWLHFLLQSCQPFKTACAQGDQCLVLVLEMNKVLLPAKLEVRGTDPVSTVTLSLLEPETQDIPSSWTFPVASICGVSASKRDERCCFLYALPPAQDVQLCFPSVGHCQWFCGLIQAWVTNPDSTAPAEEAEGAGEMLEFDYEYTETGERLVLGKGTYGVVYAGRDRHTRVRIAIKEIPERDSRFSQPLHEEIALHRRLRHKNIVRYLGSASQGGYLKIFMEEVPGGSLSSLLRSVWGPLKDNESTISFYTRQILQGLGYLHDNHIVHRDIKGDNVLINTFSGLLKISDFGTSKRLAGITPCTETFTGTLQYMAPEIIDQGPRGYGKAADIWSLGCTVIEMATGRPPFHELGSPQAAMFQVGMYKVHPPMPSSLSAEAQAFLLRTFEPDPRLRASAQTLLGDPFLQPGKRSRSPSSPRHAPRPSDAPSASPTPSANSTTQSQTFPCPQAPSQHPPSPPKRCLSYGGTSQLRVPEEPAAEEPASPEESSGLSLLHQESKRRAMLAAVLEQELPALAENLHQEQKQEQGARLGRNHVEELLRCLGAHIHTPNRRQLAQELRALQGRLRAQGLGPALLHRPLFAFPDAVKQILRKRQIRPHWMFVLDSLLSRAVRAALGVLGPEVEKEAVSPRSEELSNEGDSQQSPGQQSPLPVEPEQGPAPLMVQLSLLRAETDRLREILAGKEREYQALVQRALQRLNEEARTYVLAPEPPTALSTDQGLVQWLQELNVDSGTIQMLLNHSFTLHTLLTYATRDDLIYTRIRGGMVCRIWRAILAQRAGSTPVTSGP
MKNK1 (human), sequence (Q9BUB5 whole entry, looked up): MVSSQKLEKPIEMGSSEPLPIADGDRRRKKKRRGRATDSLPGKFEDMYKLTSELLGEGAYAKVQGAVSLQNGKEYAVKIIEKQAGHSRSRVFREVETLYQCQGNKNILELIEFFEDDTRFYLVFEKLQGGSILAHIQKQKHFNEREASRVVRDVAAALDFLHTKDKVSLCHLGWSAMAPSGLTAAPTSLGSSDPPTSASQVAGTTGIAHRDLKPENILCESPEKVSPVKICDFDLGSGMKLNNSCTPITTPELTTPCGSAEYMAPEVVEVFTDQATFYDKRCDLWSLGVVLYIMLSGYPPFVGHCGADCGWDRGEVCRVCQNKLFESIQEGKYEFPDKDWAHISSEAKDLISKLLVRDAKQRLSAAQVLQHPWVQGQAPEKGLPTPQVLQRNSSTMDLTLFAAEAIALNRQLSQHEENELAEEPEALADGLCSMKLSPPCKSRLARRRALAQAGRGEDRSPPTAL
BMP2K (human), sequence (Q9NSY1 whole entry, looked up): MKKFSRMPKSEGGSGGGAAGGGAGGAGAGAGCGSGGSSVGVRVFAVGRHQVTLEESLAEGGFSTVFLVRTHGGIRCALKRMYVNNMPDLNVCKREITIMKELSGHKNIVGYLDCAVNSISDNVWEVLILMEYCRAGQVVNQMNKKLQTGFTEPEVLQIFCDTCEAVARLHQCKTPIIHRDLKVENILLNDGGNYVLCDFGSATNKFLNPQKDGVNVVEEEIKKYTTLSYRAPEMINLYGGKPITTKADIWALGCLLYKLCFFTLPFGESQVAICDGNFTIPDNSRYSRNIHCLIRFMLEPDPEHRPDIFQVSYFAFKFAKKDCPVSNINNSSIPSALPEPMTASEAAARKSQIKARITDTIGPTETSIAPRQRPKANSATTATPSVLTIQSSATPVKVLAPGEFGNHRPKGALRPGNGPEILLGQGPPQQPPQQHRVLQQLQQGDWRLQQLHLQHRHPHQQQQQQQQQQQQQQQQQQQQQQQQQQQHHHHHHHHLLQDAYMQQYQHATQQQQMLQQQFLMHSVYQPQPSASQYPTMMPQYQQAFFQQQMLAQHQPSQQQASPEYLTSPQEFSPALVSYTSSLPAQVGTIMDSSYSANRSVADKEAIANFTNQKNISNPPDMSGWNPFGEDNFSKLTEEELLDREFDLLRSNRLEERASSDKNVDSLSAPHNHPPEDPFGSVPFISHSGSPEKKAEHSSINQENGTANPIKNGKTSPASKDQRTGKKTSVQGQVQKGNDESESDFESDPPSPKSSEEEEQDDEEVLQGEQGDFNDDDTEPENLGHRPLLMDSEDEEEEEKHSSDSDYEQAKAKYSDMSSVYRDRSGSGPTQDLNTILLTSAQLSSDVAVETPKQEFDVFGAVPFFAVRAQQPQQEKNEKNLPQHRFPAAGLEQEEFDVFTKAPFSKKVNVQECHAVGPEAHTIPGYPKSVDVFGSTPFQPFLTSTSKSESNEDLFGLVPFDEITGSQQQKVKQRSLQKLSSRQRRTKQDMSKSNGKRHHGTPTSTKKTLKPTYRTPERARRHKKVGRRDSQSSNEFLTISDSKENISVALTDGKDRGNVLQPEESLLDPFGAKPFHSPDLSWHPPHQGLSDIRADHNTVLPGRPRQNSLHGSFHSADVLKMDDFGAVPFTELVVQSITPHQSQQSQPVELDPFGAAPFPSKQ

In the case of `CNc1nc(Nc2ccc(C(=O)N3CCOCC3)cc2OC)ncc1Cl`, the kinase still bound, per cent of control [1] is reported as 97%, the kinase still bound, per cent of control [2] is reported as 100% and the kinase still bound, per cent of control [3] is reported as 100%. It also gave a kinase still bound, per cent of control [4] of 100%, a kinase still bound, per cent of control [5] of 100% and a kinase still bound, per cent of control [6] of 100%. For the same molecule, the residual activity [7] was 100%, the kinase still bound, per cent of control [8] was 82% and the kinase still bound, per cent of control [9] was 79%. It also gave a kinase still bound, per cent of control [10] of 100%, a kinase still bound, per cent of control [11] of 100% and a kinase still bound, per cent of control [12] of 97%. For the same molecule, the kinase still bound, per cent of control [13] was 100%, the kinase still bound, per cent of control [14] was 99% and the kinase still bound, per cent of control [15] was 62%. The kinase still bound, per cent of control [16] was 100%, the kinase still bound, per cent of control [17] was 100% and the kinase still bound, per cent of control [18] was 100%. The kinase still bound, per cent of control [19] was 88%, the kinase still bound, per cent of control [20] was 97% and the kinase still bound, per cent of control [21] was 100%. The residual activity [22] was 100%, the kinase still bound, per cent of control [23] was 100% and the kinase still bound, per cent of control [24] was 100%. The kinase still bound, per cent of control [25] was 87%, the kinase still bound, per cent of control [26] was 62% and the kinase still bound, per cent of control [27] was 100%. It also gave a kinase still bound, per cent of control [28] of 93%, a kinase still bound, per cent of control [29] of 92% and a kinase still bound, per cent of control [30] of 100%. It also gave a kinase still bound, per cent of control [31] of 100%, a kinase still bound, per cent of control [32] of 100% and a kinase still bound, per cent of control [33] of 88%. The kinase still bound, per cent of control [34] was 100%, the kinase still bound, per cent of control [35] was 85% and the kinase still bound, per cent of control [36] was 100%.
